Test results from US10562935B2, “Stapled peptides and uses thereof” (London Health Sciences Centre Research Inc., priority 2015, dated 2020).
Bridges are numbered along the chain shown (N, C = ends).

Tests used:
NF-κB = experiment: Inflammation assay: NF-κB inducible SEAP reporter in RAW-Blue macrophages stimulated with PAM3CSK4; format: cell-based, murine; details: for Inflammation (% Inhib.): % inhibition relative to positive control
Method: Compounds 132, 133, 135, 150, 152, 157-161, 265-269, 275, 277, and 278 were evaluated for their ability to inhibit inflammation. To determine the effect of the peptides on inflammation, commercially available murine RAW 264.7 macrophages carrying a secreted embryonic alkaline phosphatase (SEAP) reporter that is inducible by NF-κB (RAW-Blue; InvivoGen, San Diego, Calif., USA) were used. Cells were grown to 80% confluence in DMEM containing 4.5 g/L glucose, 10% heat-inactivated fetal bovine serum, 2 mM L-glutamine, 50 μg/mL penicillin/streptomycin, 100 μg/mL Normocin (InvivoGen) at 37° C. in 5% CO2. For peptide screening experiments, cells were scraped in growth medium, counted, and plated to flat-bottom 96-well plates at a density of 5×10^4 cells/well either in the presence or absence (control) of 200 ng/mL TLR1/TLR2 agonist PAM3CSK4 (InvivoGen). Peptides were added in 6 replicate wells at a dose of 10 ng/mL in the presence of PAM3CSK4. After 18 hours of stimulation, SEAP concentrations (indicating NF-κB activity) were measured in the supernatants collected from the RAW-Blue cells using QUANTI-BLUE reagent (InvivoGen). After 20 minutes of incubation at 37° C., SEAP levels were determined using spectrophotometry at a wavelength of 630 nm.
Values are the mean and SDM of n=3 replicates. *p<0.05 and ***p<0.001 compared to +PAM3. In FIGS. 44 and 45, where bars are labeled with two compound numbers (“133/150” and “135/152”) this means that the data were pooled for the indicated compounds, i.e., for the non-acetylated and acetylated versions of the indicated peptides.

[1] = Direct HA-binding ELISA of biotinylated peptides on HA coated plates (Example 4); set-up: key to HA binding: absorbance (color) read at 450 nm; details: for HA binding: as repeated in tables 16, 18, 20; for HA direct binding (OD): optical density, summary tables 15, 17, 19
How it was run: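 N-terminally biotinylated peptides (AEEA spacer) added to HA-coated wells at 0.8 or 0.08 μM, n=3, overnight at 4° C with shaking; biotin-labeled 7 kDa RHAMM as positive control. Bound peptide detected with streptavidin-HRP (1 hr, room temperature) and TMB substrate (5-10 min), absorbance at 450 nm.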

[2] = system: RHAMM-overexpressing (LR21) cells; experiment: Cell invasion assay (Boyden chamber with MATRIGEL, Chemicon ECM555); format: cell-based; details: for inhibition of cellular invasion (in words): 10 ng/mL peptide, 20 hours, compared to 30% serum control; for Invasion (% inhib.): % inhibition relative to positive control, 10 ng/mL of peptide
How it was run: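 Serum-starved RHAMM-overexpressing LR21 cells (7.5×10^4) placed in upper Boyden chamber over MATRIGEL-coated filter, with or without 10 ng/mL peptide; 30% FBS/DMEM chemoattractant below. Invaded cells quantified after 20 h by CyQUANT GR fluorescence (480/520 nm); mean ± SD, n=3, versus 30% serum control.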

[3] = system: RHAMM-overexpressing (LR21) cells; experiment: Cell migration assay (Boyden chamber, Chemicon ECM510); format: cell-based; details: for inhibition of cell migration (in words): 10 ng/mL peptide, 20 hours, compared to 30% serum control; for Migration (% inhib.): % inhibition relative to positive control
How it was run: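 Serum-starved LR21 cells (7.5×10^4) placed in the upper Boyden chamber with or without 10 ng/mL peptide, with 30% FBS in DMEM as lower-chamber chemoattractant. Cells crossing the membrane after 20 h quantified by CyQUANT GR fluorescence (480/520 nm); mean of n=3, compared with 30% serum control.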

HA binding [1]	HA direct binding (OD) [1]	direct HA binding (in words) ([1]; biotinylated equivalents of the named compounds, 0.8 or 0.08 μM, vs PBS only control)	Substance	Inflammation (% Inhib.) (NF-κB)	inhibition of cellular invasion (in words) [2]	Invasion (% inhib.) [2]	inhibition of cell migration (in words) [3]	Migration (% inhib.) [3]	inhibition of inflammation (SEAP / NF-κB activity, in words) (NF-κB; 10 ng/mL peptide with 200 ng/mL PAM3CSK4, 18 hours, compared to +PAM3)
0.005	–	bound poorly to HA	Ac-(cyclo-6,10)-VSKLR[EQLVK]RKQN-NH2 (Ac-VSKLREQLVKRKQN-NH2; lactam 6-10; SMILES CC(=O)N[C@H](C(=O)N[C@@H](CO)C(=O)N[C@@H](CCCCN)C(=O)N[C@@H](CC(C)C)C(=O)N[C@@H](CCCNC(=N)N)C(=O)N[C@H]1CCC(=O)NCCCC[C@@H](C(=O)N[C@@H](CCCNC(=N)N)C(=O)N[C@@H](CCCCN)C(=O)N[C@@H](CCC(N)=O)C(=O)N[C@@H](CC(N)=O)C(N)=O)NC(=O)[C@H](C(C)C)NC(=O)[C@H](CC(C)C)NC(=O)[C@H](CCC(N)=O)NC1=O)C(C)C) [Compound 152]	–	significantly inhibited cellular invasion	–	significantly inhibit cell migration	–	significantly inhibited inflammation
0.125	0.125 OD	–	Ac-(cyclo-7-11, cyclo-28-32)-NLKQKI[EHVVK]LKDENSQLKSEVSKLR[EQLVK]RKQN-NH2 (Ac-NLKQKIEHVVKLKDENSQLKSEVSKLREQLVKRKQN-NH2; lactam 7-11, 28-32; SMILES CC[C@H](C)[C@H](NC(=O)[C@H](CCCCN)NC(=O)[C@H](CCC(N)=O)NC(=O)[C@H](CCCCN)NC(=O)[C@H](CC(C)C)NC(=O)[C@H](CC(N)=O)NC(C)=O)C(=O)N[C@H]1CCC(=O)NCCCC[C@@H](C(=O)N[C@@H](CC(C)C)C(=O)N[C@@H](CCCCN)C(=O)N[C@@H](CC(=O)O)C(=O)N[C@@H](CCC(=O)O)C(=O)N[C@@H](CC(N)=O)C(=O)N[C@@H](CO)C(=O)N[C@@H](CCC(N)=O)C(=O)N[C@@H](CC(C)C)C(=O)N[C@@H](CCCCN)C(=O)N[C@@H](CO)C(=O)N[C@@H](CCC(=O)O)C(=O)N[C@H](C(=O)N[C@@H](CO)C(=O)N[C@@H](CCCCN)C(=O)N[C@@H](CC(C)C)C(=O)N[C@@H](CCCNC(=N)N)C(=O)N[C@H]2CCC(=O)NCCCC[C@@H](C(=O)N[C@@H](CCCNC(=N)N)C(=O)N[C@@H](CCCCN)C(=O)N[C@@H](CCC(N)=O)C(=O)N[C@@H](CC(N)=O)C(N)=O)NC(=O)[C@H](C(C)C)NC(=O)[C@H](CC(C)C)NC(=O)[C@H](CCC(N)=O)NC2=O)C(C)C)NC(=O)[C@H](C(C)C)NC(=O)[C@H](C(C)C)NC(=O)[C@H](Cc2c[nH]cn2)NC1=O) [Compound 278]	0 % Inhib.	–	0 % inhib.	significantly inhibit cell migration	45 % inhib.	–
0.19	0.19 OD	–	Ac-(cyclo-10-14, cyclo-15-19)-KIKHVVKLK[EENSK][KKSEE]SKLRSQLVKRK-NH2 (Ac-KIKHVVKLKEENSKKKSEESKLRSQLVKRK-NH2; lactam 10-14, 15-19; SMILES CC[C@H](C)[C@H](NC(=O)[C@H](CCCCN)NC(C)=O)C(=O)N[C@@H](CCCCN)C(=O)N[C@@H](Cc1c[nH]cn1)C(=O)N[C@H](C(=O)N[C@H](C(=O)N[C@@H](CCCCN)C(=O)N[C@@H](CC(C)C)C(=O)N[C@@H](CCCCN)C(=O)N[C@H]1CCC(=O)NCCCC[C@@H](C(=O)N[C@H]2CCCCNC(=O)CC[C@@H](C(=O)N[C@@H](CO)C(=O)N[C@@H](CCCCN)C(=O)N[C@@H](CC(C)C)C(=O)N[C@@H](CCCNC(=N)N)C(=O)N[C@@H](CO)C(=O)N[C@@H](CCC(N)=O)C(=O)N[C@@H](CC(C)C)C(=O)N[C@H](C(=O)N[C@@H](CCCCN)C(=O)N[C@@H](CCCNC(=N)N)C(=O)N[C@@H](CCCCN)C(N)=O)C(C)C)NC(=O)[C@H](CCC(=O)O)NC(=O)[C@H](CO)NC(=O)[C@H](CCCCN)NC2=O)NC(=O)[C@H](CO)NC(=O)[C@H](CC(N)=O)NC(=O)[C@H](CCC(=O)O)NC1=O)C(C)C)C(C)C) [Compound 268]	0 % Inhib.	significantly inhibited cellular invasion	50 % inhib.	–	0 % inhib.	–

Further lines, the substance ahead of its results:

Substance	HA binding [1]	HA direct binding (OD) [1]	direct HA binding (in words) ([1]; biotinylated equivalents of the named compounds, 0.8 or 0.08 μM, vs PBS only control)	Inflammation (% Inhib.) (NF-κB)	inhibition of cellular invasion (in words) [2]	Invasion (% inhib.) [2]	inhibition of cell migration (in words) [3]	Migration (% inhib.) [3]	inhibition of inflammation (SEAP / NF-κB activity, in words) (NF-κB; 10 ng/mL peptide with 200 ng/mL PAM3CSK4, 18 hours, compared to +PAM3)
Ac-(cyclo-4,8)-VSK[ERSQK]VKRKQN-NH2 (Ac-VSKERSQKVKRKQN-NH2; lactam 4-8; SMILES CC(=O)N[C@H](C(=O)N[C@@H](CO)C(=O)N[C@@H](CCCCN)C(=O)N[C@H]1CCC(=O)NCCCC[C@@H](C(=O)N[C@H](C(=O)N[C@@H](CCCCN)C(=O)N[C@@H](CCCNC(=N)N)C(=O)N[C@@H](CCCCN)C(=O)N[C@@H](CCC(N)=O)C(=O)N[C@@H](CC(N)=O)C(N)=O)C(C)C)NC(=O)[C@H](CCC(N)=O)NC(=O)[C@H](CO)NC(=O)[C@H](CCCNC(=N)N)NC1=O)C(C)C) [Compound 150]	0.015	0.015 OD	–	0 % Inhib.	significantly inhibited cellular invasion	79 % inhib.	significantly inhibit cell migration	0 % inhib.	–
Ac-(cyclo-10-14, cyclo-15-19)-KIKHVVKLK[EENSK][EKSEK]SKLRSQLVKRK-NH2 (Ac-KIKHVVKLKEENSKEKSEKSKLRSQLVKRK-NH2; lactam 10-14, 15-19; SMILES CC[C@H](C)[C@H](NC(=O)[C@H](CCCCN)NC(C)=O)C(=O)N[C@@H](CCCCN)C(=O)N[C@@H](Cc1c[nH]cn1)C(=O)N[C@H](C(=O)N[C@H](C(=O)N[C@@H](CCCCN)C(=O)N[C@@H](CC(C)C)C(=O)N[C@@H](CCCCN)C(=O)N[C@H]1CCC(=O)NCCCC[C@@H](C(=O)N[C@H]2CCC(=O)NCCCC[C@@H](C(=O)N[C@@H](CO)C(=O)N[C@@H](CCCCN)C(=O)N[C@@H](CC(C)C)C(=O)N[C@@H](CCCNC(=N)N)C(=O)N[C@@H](CO)C(=O)N[C@@H](CCC(N)=O)C(=O)N[C@@H](CC(C)C)C(=O)N[C@H](C(=O)N[C@@H](CCCCN)C(=O)N[C@@H](CCCNC(=N)N)C(=O)N[C@@H](CCCCN)C(N)=O)C(C)C)NC(=O)[C@H](CCC(=O)O)NC(=O)[C@H](CO)NC(=O)[C@H](CCCCN)NC2=O)NC(=O)[C@H](CO)NC(=O)[C@H](CC(N)=O)NC(=O)[C@H](CCC(=O)O)NC1=O)C(C)C)C(C)C) [Compound 266]	0.24	0.24 OD	–	0 % Inhib.	significantly inhibited cellular invasion	50 % inhib.	significantly inhibit cell migration	61 % inhib.	–
Ac-(cyclo-10-14, cyclo-15-19)-KIKHVVKLK[KENSE][EKSEK]SKLRSQLVKRK-NH2 [Compound 269]	0.19	0.19 OD	–	0 % Inhib.	–	0 % inhib.	significantly inhibit cell migration	61 % inhib.	–
Ac-(cyclo-11-15, cyclo-16-20)-KIKHVVKLKD[ENSQK][ESEVK]KLRSQLVKRIK-NH2 [Compound 267]	0.01	0.01 OD	–	0 % Inhib.	–	0 % inhib.	–	0 % inhib.	–
